Patent US20100029615A1, “BENZIMIDAZOLE DERIVATIVES” (priority 2006, published 2010)

Molecular target: T1, SMO (Mus musculus, UniProt P56726)
T1 construct: endogenous in cells; host or cells: C3H10T1/2 (ATCC #CCL-226)
Test: Smoothened (SMO)/Sonic Hedgehog (SHh) Transient Transcriptional Activation Assay (Gli-luciferase reporter in C3H10T1/2 cells)
Format: cell-based, murine
Settings: SHh 250 ng/ml, 20 hrs; for inhibition at 2 µM: C3H 10T1/2, 2 μM test compound, read-out: SMO CELL % INHIBITION @ 2 μM
In short: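 Luminescence (Dual-Glo) measured after 20 h co-exposure at 37 °C to 250 ng/ml human SHh and compound at 2 uM down to 2 nM final. Cells were C3H10T1/2 carrying a transfected murine 10× Gli response-element luciferase construct with pEGFP, starved 20 h in 0.5% calf serum beforehand.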

T1 sequence (P56726 33-793): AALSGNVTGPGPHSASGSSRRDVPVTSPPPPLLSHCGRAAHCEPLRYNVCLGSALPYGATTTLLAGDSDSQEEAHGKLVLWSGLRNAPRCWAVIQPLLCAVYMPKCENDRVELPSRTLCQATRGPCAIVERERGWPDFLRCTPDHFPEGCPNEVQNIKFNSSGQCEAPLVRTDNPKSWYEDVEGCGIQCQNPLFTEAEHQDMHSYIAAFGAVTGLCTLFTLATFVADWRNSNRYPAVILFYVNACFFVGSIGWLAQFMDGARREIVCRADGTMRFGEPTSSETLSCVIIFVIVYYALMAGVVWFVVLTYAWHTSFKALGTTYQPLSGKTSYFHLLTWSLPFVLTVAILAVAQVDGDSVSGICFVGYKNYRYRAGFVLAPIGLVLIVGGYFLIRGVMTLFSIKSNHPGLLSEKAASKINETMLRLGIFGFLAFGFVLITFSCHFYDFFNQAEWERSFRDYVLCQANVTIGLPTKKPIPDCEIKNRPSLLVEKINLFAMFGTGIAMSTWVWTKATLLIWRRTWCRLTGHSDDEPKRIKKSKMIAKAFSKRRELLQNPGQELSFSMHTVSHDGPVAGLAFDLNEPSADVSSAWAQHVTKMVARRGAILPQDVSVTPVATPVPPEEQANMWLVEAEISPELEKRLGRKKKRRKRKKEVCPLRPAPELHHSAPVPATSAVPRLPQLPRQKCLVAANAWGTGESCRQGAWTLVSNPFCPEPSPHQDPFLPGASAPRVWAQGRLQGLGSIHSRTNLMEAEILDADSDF

Row | SMO % inhibition at 2 uM (2 uM test compound) [%] | inhibition at 2 µM [%] | Compound
1 | 98 |  | N-(3-(1,5-Dimethyl-1H-benzo[d]imidazol-2-yl)cyclohexyl]-3,5-dimethoxybenzamide and N-(3-(1,6-dimethyl-1H-benzo[d]imidazol-2-yl)cyclohexyl]-3,5-dimethoxybenzamide [Example 22]
2 |  | 93 | N#CCC(=O)NC1CCCC(c2nc3ccccc3[nH]2)C1 (stereo not shown) [Example 102, N-[3-(1H-benzimidazaol-2-yl)cyclohexyl]-2-cyanoacetamide triflouroacetate]
3 |  | 89 | COc1ccc2cc(C(=O)N[C@@H]3CCC[C@H](c4nc5ccccc5[nH]4)C3)[nH]c2c1 [Example 211, N-[(1R,3S)-3-(1H-benzimidazol-2-yl)cyclohexyl]-6-methoxy-1H-indole-2-carboxamide triflouroacetate]
4 |  | 94 | COC(=O)CCCC(=O)NC1CCCC(c2nc3ccccc3[nH]2)C1 (stereo not shown) [Example 103, methyl 5-{[3-(1H-benzimidazol-2-yl)cyclohexyl]-amino}-5-oxopentanoate triflouroacetate]
